From patent US20260234124A1, “Substituted Pyrazolyl-Pyridinyl Compounds as Ligand Directed Degraders of IRAK3” (Celgene Corporation, priority 2022, published 2026)

Target: T1, IRAK3-ePL (Homo sapiens, UniProt Q9Y616)
T1 construct: expressed in transfected cells; host or cells: 293T CRBN OE/GSPT1 G575N KI cells, lentiviral transduction, puromycin selection
Test: IRAK3-ePL overexpressing degradation assay
Format: cell-based
Settings: IRAK3-ePL Lenti-X 293T CRBN/GSPT1 G575N cells, overnight incubation, top dose 10 μM; for Dmax: HEK-293T, maximum percentage loss of target protein; for DC50: read-out: IRAK3 ePL degradation EC50
Experimental: Example B1. IRAK3-ePL Overexpressing Degradation Assay
Stable cell lines were generated by the following protocol. 3×10^5 Lenti-X 293T cells (Clonetech) were plated in 0.8 mL of media in a 12-well plate and incubated overnight at 37° C./5% CO2. Packaging plasmid (0.4 μg, pMD), envelope plasmid (0.4 μg, pSP), and lentiviral transfer IRAK3-ePL plasmid (0.8 μg, IRAK3 sequence NM_007199.3) were mixed in 0.1 mL of Opti-MEM and incubated for 5 min. Simultaneously, 2.4 μL of Lipofectamine 2000 (Invitrogen) was added to 0.1 mL of Opti-MEM (Gibco) and incubated for 5 min. The plasmid DNA and lipofectamine were combined and the mixture was allowed to incubate for 20 min. DNA:Lipofectamine Opti-MEM mixtures were then added to previously plated cells dropwise and the cells were incubated for ~16 h at 37° C./5% CO2. Following incubation, the media was removed and 1.2 mL of fresh media was added per well. Lenti-X 293T cells were incubated for ~30 h at 37° C./5% CO2. […] Following incubation, media was removed from the Lenti-X 293T wells and passed through a […]. Part of the viral supernatant was used to transduce cells and the rest was stored at −80° C. Viruses were then added individually (0.5 mL virus) to each well of the 293T^CRBN OE/GSPT1 G575N KI cells, followed by addition of polybrene (10 mg/mL Millipore) to each well at a final concentration of 5.0 μg/mL. Cells were incubated for ~24 h at 37° C./5% CO2. After aspirating media off plates, cells were washed with DPBS, trypsinized and plated in a 10 cm dish in 15 mL of media and 1 μg/mL puromycin. Following incubation of cells for ~72 h at 37° C./5% CO2, media was aspirated off plates, and cells were washed with DPBS and trypsinized. The cells were plated in a 15 cm dish in 40 mL of media with 1.0 μg/mL Puromycin (Gibco) and incubated for ~72 h at 37° C./5% CO2. Following incubation, media was removed and cells were washed with DPBS and trypsinized. The majority of cells were resuspended in Invitrogen freezing media and stored away (~6-8×10^6 cells/vial).
IRAK3-ePL cellular dose response curve degradation assays were performed by the following protocol. Compounds to be tested were dispensed into a white 384-well tissue-culture treated plate using an acoustic liquid handler. Dilutions were prepared based on a 25 μL assay volume in duplicate 10 point 3-fold serial dilutions starting with a 10 μM dose. Negative control wells were included, which only contain 0.2% DMSO to calculate 100% signal. Positive control wells containing 30 μM Ataluren (luciferase inhibitor) were included to calculate the background signal level. All wells were backfilled to a final DMSO concentration of 0.2% to ensure DMSO uniformity across wells. IRAK3-ePL expressing cells (IRAK3-ePL Lenti-X 293T^CRBN/GSPT1 G575N) were washed, trypsinized, counted, and resuspended in fresh DMEM (Gibco) to give a cell concentration of 200,000 cells/mL. 25 μL of cells (5,000 cells/well) were dispensed into the wells of the 384-well plate prespotted with compounds in the previous step and incubated overnight at 37° C./5% CO2. Following incubation, the 384-well plate was taken out of the incubator and left at room temperature for 30 min. InCELL hunter reagent was prepared according to manufacturer's instructions (EA reagent, lysis buffer, and substrate reagent in a 1:1:4 ratio, Cat #96-0002, DiscoverX), which was added to the 384-well plate 25 μL per well. Following the incubation of the plate for 1 h at room temperature, the luminescence signal was read using a ViewLux plate reader. Data was processed and analyzed in ActivityBase software. In short, the average luminescence values of the positive control wells were subtracted from the rest of the wells for background correction, and all luminescence values were normalized to the DMSO control wells. The average value of the DMSO control wells was set to equal 100% of the relative IRAK3-ePL protein levels. […]

SMILES | Dmax [%] | DC50 [µM]
C[C@@H](Oc1cc(-c2cnn(C3CCN(C4CCC5(CC4)CCN(C(=O)c4ccc6c(c4)C(=O)N(C4CCC(=O)NC4=O)C6=O)CC5)CC3)c2)cnc1N)c1c(Cl)ccc(F)c1Cl (stereo partly drawn) [Compound 18, 5-(9-(4-(4-(6-amino-5-((R)-1-(2,6-dichloro-3-fluorophenyl)ethoxy)pyridin-3-yl)-1H-pyrazol-1-yl)piperidin-1-yl)-3-azaspiro[5.5]undecane-3-carbonyl)-2-(2,6-dioxopiperidin-3-yl)isoindoline-1,3-dione] | 80 | 0.066
C[C@@H](Oc1cc(-c2cnn(C3CCN(C4CCC5(CC4)CCN(C(=O)c4cccc6c4CN(C4CCC(=O)NC4=O)C6=O)CC5)CC3)c2)cnc1N)c1c(Cl)ccc(F)c1Cl (stereo partly drawn) [Compound 21, 3-(4-(9-(4-(4-(6-amino-5-((R)-1-(2,6-dichloro-3-fluorophenyl)ethoxy)pyridin-3-yl)-1H-pyrazol-1-yl)piperidin-1-yl)-3-azaspiro[5.5]undecane-3-carbonyl)-1-oxoisoindolin-2-yl)piperidine-2,6-dione] | 59 | 0.105
Cc1ncsc1-c1ccc(CNC(=O)[C@@H]2C[C@@H](O)CN2C(=O)[C@@H](NC(=O)COCCOCCOCCOCCOCCOCCN2CCC(n3cc(-c4cnc(N)c(O[C@H](C)c5c(Cl)ccc(F)c5Cl)c4)cn3)CC2)C(C)(C)C)cc1 [Compound 6, (2S,4R)-1-((S)-23-(4-(4-(6-amino-5-((R)-1-(2,6-dichloro-3-fluorophenyl)ethoxy)pyridin-3-yl)-1H-pyrazol-1-yl)piperidin-1-yl)-2-(tert-butyl)-4-oxo-6,9,12,15,18,21-hexaoxa-3-azatricosanoyl)-4-hydroxy-N-(4-(4-methylthiazol-5-yl)benzyl)pyrrolidine-2-carboxamide] | 25 | > 10
C[C@@H](Oc1cc(-c2cnn(C3CCN(CCOCCOCCOCCNC(=O)COc4ccc5c(c4)C(=O)N(C4CCC(=O)NC4=O)C5=O)CC3)c2)cnc1N)c1c(Cl)ccc(F)c1Cl (stereo partly drawn) [Compound 16, N-(2-(2-(2-(2-(4-(4-(6-amino-5-((R)-1-(2,6-dichloro-3-fluorophenyl)ethoxy)pyridin-3-yl)-1H-pyrazol-1-yl)piperidin-1-yl)ethoxy)ethoxy)ethoxy)ethyl)-2-((2-(2,6-dioxopiperidin-3-yl)-1,3-dioxoisoindolin-5-yl)oxy)acetamide] | 19 | > 10
C[C@@H](Oc1cc(-c2cnn(C3CCN(C4CCC5(CC4)CCN(C(=O)c4ccc6c(c4)C(=O)N(C4CCC(=O)NC4=O)C6)CC5)CC3)c2)cnc1N)c1c(Cl)ccc(F)c1Cl (stereo partly drawn) [Compound 19, 3-(6-(9-(4-(4-(6-amino-5-((R)-1-(2,6-dichloro-3-fluorophenyl)ethoxy)pyridin-3-yl)-1H-pyrazol-1-yl)piperidin-1-yl)-3-azaspiro[5.5]undecane-3-carbonyl)-1-oxoisoindolin-2-yl)piperidine-2,6-dione] | 36 | > 10
Cc1ncsc1-c1ccc(CNC(=O)[C@@H]2C[C@@H](O)CN2C(=O)[C@@H](NC(=O)COCCOCCOCCOCCOCCOCCOCCN2CCC(n3cc(-c4cnc(N)c(O[C@H](C)c5c(Cl)ccc(F)c5Cl)c4)cn3)CC2)C(C)(C)C)cc1 [Compound 7, (2S,4R)-1-((S)-26-(4-(4-(6-amino-5-((R)-1-(2,6-dichloro-3-fluorophenyl)ethoxy)pyridin-3-yl)-1H-pyrazol-1-yl)piperidin-1-yl)-2-(tert-butyl)-4-oxo-6,9,12,15,18,21,24-heptaoxa-3-azahexacosanoyl)-4-hydroxy-N-(4-(4-methylthiazol-5-yl)benzyl)pyrrolidine-2-carboxamide] | 38 | > 10
C[C@@H](Oc1cc(-c2cnn(C3CCN(CCOCCOCCOCCNC(=O)COc4cccc5c4C(=O)N(C4CCC(=O)NC4=O)C5=O)CC3)c2)cnc1N)c1c(Cl)ccc(F)c1Cl (stereo partly drawn) [Compound 11, N-(2-(2-(2-(2-(4-(4-(6-amino-5-((R)-1-(2,6-dichloro-3-fluorophenyl)ethoxy)pyridin-3-yl)-1H-pyrazol-1-yl)piperidin-1-yl)ethoxy)ethoxy)ethoxy)ethyl)-2-((2-(2,6-dioxopiperidin-3-yl)-1,3-dioxoisoindolin-4-yl)oxy)acetamide] | 12 | > 10
C[C@@H](Oc1cc(-c2cnn(C3CCN(C4CCC5(CC4)CCN(C(=O)c4ccc6c(c4)CN(C4CCC(=O)NC4=O)C6=O)CC5)CC3)c2)cnc1N)c1c(Cl)ccc(F)c1Cl (stereo partly drawn) [Compound 20, 3-(5-(9-(4-(4-(6-amino-5-((R)-1-(2,6-dichloro-3-fluorophenyl)ethoxy)pyridin-3-yl)-1H-pyrazol-1-yl)piperidin-1-yl)-3-azaspiro[5.5]undecane-3-carbonyl)-1-oxoisoindolin-2-yl)piperidine-2,6-dione] | 74 | 0.055
C[C@@H](Oc1cc(-c2cnn(C3CCN(CCOCCOCCOCCOCCNC(=O)COc4cccc5c4C(=O)N(C4CCC(=O)NC4=O)C5=O)CC3)c2)cnc1N)c1c(Cl)ccc(F)c1Cl (stereo partly drawn) [Compound 12, N-(14-(4-(4-(6-amino-5-((R)-1-(2,6-dichloro-3-fluorophenyl)ethoxy)pyridin-3-yl)-1H-pyrazol-1-yl)piperidin-1-yl)-3,6,9,12-tetraoxatetradecyl)-2-((2-(2,6-dioxopiperidin-3-yl)-1,3-dioxoisoindolin-4-yl)oxy)acetamide] | 30 | > 10
Cc1ncsc1-c1ccc(CNC(=O)[C@@H]2C[C@@H](O)CN2C(=O)[C@@H](NC(=O)COCCOCCN2CCC(n3cc(-c4cnc(N)c(O[C@H](C)c5c(Cl)ccc(F)c5Cl)c4)cn3)CC2)C(C)(C)C)cc1 [Compound 2, (2S,4R)-1-((S)-2-(2-(2-(2-(4-(4-(6-amino-5-((R)-1-(2,6-dichloro-3-fluorophenyl)ethoxy)pyridin-3-yl)-1H-pyrazol-1-yl)piperidin-1-yl)ethoxy)ethoxy)acetamido)-3,3-dimethylbutanoyl)-4-hydroxy-N-(4-(4-methylthiazol-5-yl)benzyl)pyrrolidine-2-carboxamide] | 25 | > 10
Cc1ncsc1-c1ccc(CNC(=O)[C@@H]2C[C@@H](O)CN2C(=O)[C@@H](NC(=O)COCCOCCOCCN2CCC(n3cc(-c4cnc(N)c(O[C@H](C)c5c(Cl)ccc(F)c5Cl)c4)cn3)CC2)C(C)(C)C)cc1 [Compound 3, (2S,4R)-1-((S)-14-(4-(4-(6-amino-5-((R)-1-(2,6-dichloro-3-fluorophenyl)ethoxy)pyridin-3-yl)-1H-pyrazol-1-yl)piperidin-1-yl)-2-(tert-butyl)-4-oxo-6,9,12-trioxa-3-azatetradecanoyl)-4-hydroxy-N-(4-(4-methylthiazol-5-yl)benzyl)pyrrolidine-2-carboxamide] | 13 | > 10
C[C@@H](Oc1cc(-c2cnn(C3CCN(CCNC(=O)COc4cccc5c4C(=O)N(C4CCC(=O)NC4=O)C5=O)CC3)c2)cnc1N)c1c(Cl)ccc(F)c1Cl (stereo partly drawn) [Compound 8, N-(2-(4-(4-(6-amino-5-((R)-1-(2,6-dichloro-3-fluorophenyl)ethoxy)pyridin-3-yl)-1H-pyrazol-1-yl)piperidin-1-yl)ethyl)-2-((2-(2,6-dioxopiperidin-3-yl)-1,3-dioxoisoindolin-4-yl)oxy)acetamide] | 12 | > 10
